Counter-ions that a name gives are not always drawn. Like-named read-outs stand apart in the source and are kept apart here.
Assays:
[1] = Solubility of gepotidacin mesylate dihydrate (Form 1) in water and simulated fluids; format: physicochemical; conditions: 20 °C, thermodynamic from solid, as free base, 20-25° C., read-out: Solubility (mg/mL of free base at 20-25° C.)
Procedure: The solubility of gepotidacin mesylate dihydrate (Form 1) was determined in simulated gastric fluid pH 1.6 (SGF), fasted state simulated intestinal fluid pH 6.5 (FaSSIF) and fed state simulated intestinal fluid pH 6.5 (FeSSIF) at ambient room temperature (20-25 C).

[2] = Stability of crystal form under ambient conditions; format: physicochemical
Procedure: In another preparation, a spatula (<20 mg) of gepotidacin mesylate dihydrate (Form 1) was suspended in IPA (<1.5 ml). The suspension was heated with a heat gun to dissolve most of the solids, and then left to slowly cool to room temperature. The resultant crystals were filtered and analysed by DSC, TGA, and XRPD.

solubility ([1]; Water) [mg/mL] | solubility ([1]; fasted state simulated intestinal fluid (FaSSIF), FaSSIF (pH 6.5)) [mg/mL] | solubility ([1]; fed state simulated intestinal fluid (FeSSIF), FeSSIF (pH 6.5)) [mg/mL] | solubility ([1]; simulated gastric fluid (SGF), simulated gastric fluid, SGF (pH 1.6)) [mg/mL] | stability of the form [2] | Compound
> 180 | 113 | 99 | 175 |  | O=c1ccc2ncc(=O)n3c2n1C[C@H]3CN1CCC(NCc2cc3c(cn2)OCCC3)CC1 [gepotidacin mesylate dihydrate (Form 1)]
 |  |  |  | unstable under ambient conditions | CS(=O)(=O)O.O=c1cnc2ccc(=O)n3c2n1C[C@H]3CN1CCC(NCc2cc3c(cn2)OCCC3)CC1 [gepotidacin mesylate anhydrate]
